Results from ChEMBL document CHEMBL1153993, “Exploring a pocket for polycycloaliphatic groups in the CXCR3 receptor with the aid of a modular synthetic strategy” (Bioorg Med Chem Lett, 2009).

target: T1, C-X-C chemokine receptor type 3 (Homo sapiens, UniProt P49682); assay: Displacement of [125I]CXCL10 from human CXCR3 expressed in HEK293T cells; type: cell-based, HEK-293T; conditions: not given
T1 sequence (P49682 whole entry): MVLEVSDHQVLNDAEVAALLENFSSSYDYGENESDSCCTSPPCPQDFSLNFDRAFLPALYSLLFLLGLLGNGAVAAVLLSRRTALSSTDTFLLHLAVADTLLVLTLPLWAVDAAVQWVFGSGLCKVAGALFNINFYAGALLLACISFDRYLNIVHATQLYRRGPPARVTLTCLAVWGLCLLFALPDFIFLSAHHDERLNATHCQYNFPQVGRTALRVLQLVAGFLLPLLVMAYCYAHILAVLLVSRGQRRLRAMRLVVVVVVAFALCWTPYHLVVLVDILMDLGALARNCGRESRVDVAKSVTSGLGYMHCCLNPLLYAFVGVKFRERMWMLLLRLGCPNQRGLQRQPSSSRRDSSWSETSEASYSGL

Compared with `Fc1cc(Cl)ccc1CN1CCC(N2CCCC2)CC1`, `Fc1cc(Cl)ccc1CN1CCC(N2CCc3ccccc3C2)CC1` is lower in Ki: > 10000 nM for the first, 5010 nM for the second.

First: O=C(Nc1ccc(Cl)cc1F)N1CCC(NC2C3CC4CC(C3)CC2C4)CC1 (stereo unspecified)
Second: Fc1cc(Cl)ccc1CN1CCC(NC2C3CC4CC(C3)CC2C4)CC1 (stereo unspecified)
The Ki of the first is higher: > 10000 nM for the first, 158 nM for the second. The second binds more tightly here.

`Fc1cc(Cl)ccc1CN1CCC(NC2CCCCC2)CC1` and `Fc1cc(Cl)ccc1CN1CCC(NCC2CCCCC2)CC1` are within 1.5-fold of each other in Ki: 5010 nM for the first, 3980 nM for the second.

Going from `CC(c1ccc(Cl)cc1F)N1CCC(NC2C3CC4CC(C3)CC2C4)CC1` (stereo unspecified) to `Clc1ccc(CN2CCC(NC3C4CC5CC(C4)CC3C5)CC2)cc1` (stereo unspecified), the Ki falls from 5010 nM to 398 nM (13-fold). The second binds more tightly here.

`CCOC(=O)C1=C(NC2C3CC4CC(C3)CC2C4)CCN(Cc2ccc(Cl)cc2F)C1` (stereo unspecified) and `CCOC(=O)C1CN(Cc2ccc(Cl)cc2F)CCC1NC1C2CC3CC(C2)CC1C3` (single isomer, unassigned) are within 1.5-fold of each other in Ki: 5010 nM for the first, 3980 nM for the second.

Going from `Fc1cc(Cl)ccc1CNC1CCN(C2C3CC4CC(C3)CC2C4)CC1` (stereo unspecified) to `Fc1cc(Cl)ccc1CN1CCC(NCC2C3CC4CC(C3)CC2C4)CC1` (stereo unspecified), the Ki falls from 3980 nM to 1000 nM (4-fold).

Compared with `CN(CC1C2CC3CC(C2)CC1C3)C1CCN(Cc2ccc(Cl)cc2F)CC1` (stereo unspecified), `CN(C1CCN(Cc2ccc(Cl)cc2F)CC1)C1C2CC3CC(C2)CC1C3` (stereo unspecified) is 2-fold lower in Ki: 2510 nM for the first, 1260 nM for the second. The second binds more tightly here.

`CC12CC3CC(C)(CC(C1)C3NC1CCN(Cc3ccc(Cl)cc3F)CC1)C2` (stereo unspecified) and `CC1(C)[C@@H]2CC[C@@]1(C)[C@H](NC1CCN(Cc3ccc(Cl)cc3F)CC1)C2` (relative stereo) are within 1.5-fold of each other in Ki: 501 nM for the first, 398 nM for the second.

Compared with `Clc1ccc(CN2CCC(NC34CC5CC(CC(C5)C3)C4)CC2)cc1`, `Fc1cc(Cl)ccc1CN1CCC(NCC23CC4CC(CC(C4)C2)C3)CC1` is 2-fold lower in Ki: 1000 nM for the first, 501 nM for the second.

Compared with `CCNC(=O)c1cnc(N2CCN(C3CCN(Cc4ccc(Cl)cc4)CC3)[C@@H](CC)C2)c(Cl)c1`, `CC1(C)[C@@H]2CC[C@@]1(C)[C@H](NC1CCN(Cc3ccc(Cl)cc3)CC1)C2` (relative stereo) is 160-fold higher in Ki: 3.16 nM for the first, 501 nM for the second.

`Fc1cc(Cl)ccc1CN1CCCN(C2C3CC4CC(C3)CC2C4)CC1` (stereo unspecified) and `Fc1cc(Cl)ccc1CN1CCCC(NC2C3CC4CC(C3)CC2C4)C1` (stereo unspecified) are within 1.5-fold of each other in Ki: 1580 nM for the first, 2000 nM for the second.

First: Fc1cc(Cl)ccc1CN1CCC(NCCC(c2ccccc2)c2ccccc2)CC1
Second: Fc1cc(Cl)ccc1CN1CCC(NC/C2=C/CCCCCC2)CC1
The Ki of the first is higher: > 100000 nM for the first, 2510 nM for the second. The second binds more tightly here.

`COc1ccc(CN2CCC(N[C@@H]3C[C@H]4CC[C@]3(C)C4(C)C)CC2)c(F)c1` and `CC1(C)[C@@H]2CC[C@@]1(C)[C@H](NC1CCN(Cc3ccc(F)cc3F)CC1)C2` (relative stereo) are within 1.5-fold of each other in Ki: 1580 nM for the first, 2000 nM for the second.

First: CC1(C)C2CC=C(CNC3CCN(Cc4ccc(Cl)cc4F)CC3)C1C2 (stereo unspecified)
Second: CC1(C)C2CC[C@@]1(C)C(CNC1CCN(Cc3ccc(Cl)cc3F)CC1)C2 (mixture of isomers)
The Ki of the first is 2-fold higher: 3980 nM for the first, 2000 nM for the second. The second binds more tightly here.

First: COC(=O)c1ccc(CN2CCC(N[C@@H]3C[C@H]4CC[C@]3(C)C4(C)C)CC2)cc1
Second: COc1ccc(CN2CCC(N[C@@H]3C[C@H]4CC[C@]3(C)C4(C)C)CC2)cc1 (relative stereo)
The Ki of the first is 1.6-fold higher: 3160 nM for the first, 2000 nM for the second.

`c1ccc(CN2CCC(NC3C4CC5CC(C4)CC3C5)CC2)cc1` (stereo unspecified) and `Fc1cc(Cl)ccc1CN1CCC(CNC2C3CC4CC(C3)CC2C4)CC1` (stereo unspecified) are the same in Ki: 3980 nM for the first, 3980 nM for the second.

Going from `Fc1cc(Cl)ccc1CN1CCC(NC2C3CC4CC2CN(C4)C3)CC1` (stereo unspecified) to `CN1C2CCC1CC(NC1CCN(Cc3ccc(Cl)cc3F)CC1)C2` (mixture of isomers), the Ki rises from 7940 nM to > 10000 nM. The first binds more tightly here.

First: CC1(C)[C@@H]2CC[C@@]1(C)[C@H](NC1CCN(Cc3ccccc3)CC1)C2 (relative stereo)
Second: CC1(C)[C@@H]2CC[C@@]1(C)[C@H](NC1CCN(Cc3ccccc3F)CC1)C2 (relative stereo)
The Ki of the first is 2.5-fold lower: 2510 nM for the first, 6310 nM for the second.

Going from `CC1(C)[C@@H]2CC[C@@]1(C)[C@H](NC1CCN(Cc3ccc(N=[N+]=[N-])cc3)CC1)C2` (relative stereo) to `CC1(C)[C@@H]2CC[C@@]1(C)[C@H](NC1CCN(Cc3ccc(N)cc3)CC1)C2` (relative stereo), the Ki rises from 794 nM to 6310 nM (7.9-fold). The first binds more tightly here.

Compared with `CN(C)c1ccc(CN2CCC(N[C@@H]3C[C@H]4CC[C@]3(C)C4(C)C)CC2)cc1` (relative stereo), `CC(=O)Nc1ccc(CN2CCC(N[C@@H]3C[C@H]4CC[C@]3(C)C4(C)C)CC2)cc1` (relative stereo) is higher in Ki: 3980 nM for the first, > 10000 nM for the second.

`CN(C1CCN(Cc2ccc(Cl)cc2F)CC1)[C@@H]1C[C@H]2CC[C@]1(C)C2(C)C` (relative stereo) and `CN(C1CCN(Cc2ccc(Cl)cc2F)CC1)[C@H]1C[C@H]2CC[C@]1(C)C2(C)C` (relative stereo) are within 1.5-fold of each other in Ki: 1580 nM for the first, 1260 nM for the second.

Going from `CC1(C)[C@@H]2CC[C@@]1(C)[C@H](NC1CCN(Cc3ccc(OC(F)(F)F)cc3)CC1)C2` (relative stereo) to `CC1(C)[C@@H]2CC[C@@]1(C)[C@H](NC1CCN(Cc3ccc(F)c(C(F)(F)F)c3)CC1)C2` (relative stereo), the Ki rises from 794 nM to 2510 nM (3.2-fold). The first binds more tightly here.

`COc1ccccc1CN1CCC(N[C@@H]2C[C@H]3CC[C@]2(C)C3(C)C)CC1` (relative stereo) and `COc1cccc(CN2CCC(N[C@@H]3C[C@H]4CC[C@]3(C)C4(C)C)CC2)c1` (relative stereo) are within 1.5-fold of each other in Ki: 10000 nM for the first, 7940 nM for the second.

First: CC1(C)[C@@H]2CC[C@@]1(C)[C@H](NC1CCN(Cc3ccccn3)CC1)C2 (relative stereo)
Second: CC1(C)[C@@H]2CC[C@@]1(C)[C@H](NC1CCN(Cc3cccnc3)CC1)C2 (relative stereo)
The Ki of the first is lower: 7940 nM for the first, > 10000 nM for the second.

First: CC1(C)[C@@H]2CC[C@@]1(C)[C@H](NC1CCN(Cc3cc(F)cc(C(F)(F)F)c3)CC1)C2 (relative stereo)
Second: CC1(C)[C@@H]2CC[C@@]1(C)[C@@H](NC1CCN(Cc3ccc(Cl)cc3F)CC1)C2 (relative stereo; 60)
The Ki of the first is 10-fold higher: 3980 nM for the first, 398 nM for the second. The second binds more tightly here.

`CC1(C)[C@@H]2CC[C@@]1(C)[C@H](NC1CCN(Cc3c(F)c(F)c(F)c(F)c3F)CC1)C2` (relative stereo) and `CC1(C)[C@@H]2CC[C@@]1(C)[C@@H](NC1CCN(Cc3ccc(Cl)cc3F)CC1)C2` (relative stereo; 62) are within 1.5-fold of each other in Ki: 501 nM for the first, 631 nM for the second.

`CC1(C)[C@@H]2CC[C@@]1(C)[C@H](NC1CCN(Cc3ccco3)CC1)C2` (relative stereo) and `CCOC(=O)C1CN(Cc2ccc(Cl)cc2F)CCC1NC1C2CC3CC(C2)CC1C3` (stereo in doubt; 32) are within 1.5-fold of each other in Ki: 6310 nM for the first, 5010 nM for the second.

target: T2, C-X-C chemokine receptor type 3 (Homo sapiens) (UniProt P49682); assay: Antagonist activity at human CXCR3 expressed in HEK293T cells coexpressing Galphaqi5 assessed as inhibition of CXCL10-induced [3H]inositol phosphate levels by liquid scintillation counting; type: functional, cell-based; conditions: HEK-293T
T2 sequence (whole entry): T1 sequence (P49682 whole entry)

Compared with `Fc1cc(Cl)ccc1CN1CCC(NC2C3CC4CC(C3)CC2C4)CC1` (stereo unspecified), `CC1(C)[C@@H]2CC[C@@]1(C)[C@H](NC1CCN(Cc3ccc(Cl)cc3F)CC1)C2` (relative stereo) is lower in pKb: 6.1 for the first, 5.7 for the second.
